Reference: patent publication US12240862B2, “Inhibitors of peptidylarginine deiminases” (Gilead Sciences, Inc., priority 2020, dated 2025)

Molecular target: T1, human PAD4 (Homo sapiens, UniProt Q9UM07)
T1 construct: human PAD4 (NM_012387), A2P663, was PCR amplified; His-SUMO (N, cleaved yes); made in house; host or cells: E. coli BL21(DE3)
Test: In vitro PAD4 BAEE biochemical assay
Conditions: human PAD4, BAEE substrate; 5 nM PAD4, 2 mM calcium chloride, 3 mM BAEE; geometric mean of multiple experiments
Outline: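 Ammonia release from BAEE deimination monitored by o-phthalaldehyde amine coupling (1 h, 25 °C) after EDTA stop. Final conditions: 5 nM tag-free recombinant human PAD4 (E. coli), 2 mM CaCl2, 3 mM BAEE, pH 7.6 MOPS with DTT; 30 min compound preincubation, then 2 h reaction at 25 °C.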

T1 sequence (Q9UM07 2-663): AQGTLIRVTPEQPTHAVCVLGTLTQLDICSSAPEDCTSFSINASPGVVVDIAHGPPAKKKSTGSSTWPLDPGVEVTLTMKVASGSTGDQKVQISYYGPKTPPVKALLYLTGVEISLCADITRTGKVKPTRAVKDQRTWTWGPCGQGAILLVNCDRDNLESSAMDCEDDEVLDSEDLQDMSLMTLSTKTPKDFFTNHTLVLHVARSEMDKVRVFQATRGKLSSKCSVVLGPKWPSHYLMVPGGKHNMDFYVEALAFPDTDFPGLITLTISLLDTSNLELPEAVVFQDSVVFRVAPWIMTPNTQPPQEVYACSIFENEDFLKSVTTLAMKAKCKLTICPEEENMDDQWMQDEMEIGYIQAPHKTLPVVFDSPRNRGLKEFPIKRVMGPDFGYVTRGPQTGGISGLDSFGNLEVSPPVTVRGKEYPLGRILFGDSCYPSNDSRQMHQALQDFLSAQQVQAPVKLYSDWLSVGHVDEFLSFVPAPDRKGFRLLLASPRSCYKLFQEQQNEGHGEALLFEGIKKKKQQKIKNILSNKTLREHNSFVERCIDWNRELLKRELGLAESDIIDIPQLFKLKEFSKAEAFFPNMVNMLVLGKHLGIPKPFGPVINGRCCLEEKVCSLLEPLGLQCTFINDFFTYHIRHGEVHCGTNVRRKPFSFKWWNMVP

IC50 [nM] | Molecule
5310 | COc1cc(C(=O)N2CC3(CNC3)C2)cc2nc(-c3cc4ccc(N(C(F)F)S(C)(=O)=O)nc4n3CC3CC3)c(C)n12 [Example 367, ~{N}-[1-(cyclopropylmethyl)-2-[7-(2,6-diazaspiro[3.3]heptane-2-carbonyl)-5-methoxy-3-methylimidazo[1,2-a]pyridin-2-yl]pyrrolo[2,3-b]pyridin-6-yl]-~{N}-(difluoromethyl) methanesulfonamide]
113 | COc1cc(C(=O)N2[C@H]3CC[C@@H]2[C@H](N)C3)cc2nc(-c3cc4ccc(N5CCCN(C)S5(=O)=O)nc4n3CC3CC3)c(C)n12 [Example 455, [(1~{R},2~{R},4~{S})-2-amino-7-azabicyclo [2.2.1]heptan-7-yl]-[2-[1-(cyclopropylmethyl)-6-(6-methyl-1,1-dioxo-1,2,6-thiadiazinan-2-yl)pyrrolo[2,3-b]pyridin-2-yl]-5-methoxy-3-methylimidazo[1,2-a]pyridin-7-yl]methanone]
32.7 | COc1cc(C(=O)N2[C@H]3CC[C@@H]2[C@H](N)C3)cc2nc(-c3cc4ccc([C@@H](C)NC(=O)c5cncs5)nc4n3CC3CC3)c(C)n12 [Example 72, ~{N}-[(1~{R})-1-[2-[7-[(1~{R},2~{R},4~{S})-2-amino-7-azabicyclo[2.2.1]heptane-7-carbonyl]-5-methoxy-3-methylimidazo [1,2-a]pyridin-2-yl]-1-(cyclopropylmethyl)pyrrolo [2,3-b]pyridin-6-yl]ethyl]-1,3-thiazole-5-carboxamide]
181 | COc1cc(C(=O)N2[C@H]3CC[C@@H]2[C@H](N)C3)cc2nc(-c3cc4ccc([C@@H](C)NC(=O)c5ccccn5)nc4n3CC3CC3)c(C)n12 [Example 175, ~{N}-[(1~{R})-1-[2-[7-[(1~{R},2~{R},4~{S})-2-amino-7-azabicyclo[2.2.1]heptane-7-carbonyl]-5-methoxy-3-methylimidazo [1,2-a]pyridin-2-yl]-1-(cyclopropylmethyl)pyrrolo [2,3-b]pyridin-6-yl]ethyl]pyridine-2-carboxamide]
236 | COc1cc(C(=O)N2CCC[C@@H](N)C2)cc2nc(-c3cc4ccc(N(C(F)F)S(=O)(=O)C5COC5)nc4n3CC3CC3)c(C)n12 [Example 478, ~{N}-[2-[7-[(3~{R})-3-aminopiperidine-1-carbonyl]-5-methoxy-3-methylimidazo[1,2-a]pyridin-2-yl]-1-(cyclopropylmethyl)pyrrolo [2,3-b]pyridin-6-yl]-~{N}-(difluoromethyl)oxetane-3-sulfonamide]
215 | COc1cc(C(=O)N2CCC[C@@H](N)C2)cc2nc(-c3cc4ccc([C@@H](C)NC(=O)C56CC(F)(C5)C6)nc4n3CC3CC3)c(C3CC3)n12 [Example 145, ~{N}-[(1~{R})-1-[2-[7-[(3~{R})-3-aminopiperidine-1-carbonyl]-3-cyclopropyl-5-methoxyimidazo [1,2-a]pyridin-2-yl]-1-(cyclopropylmethyl)pyrrolo [2,3-b]pyridin-6-yl]ethyl]-3-fluorobicyclo[1.1.1]pentane-1-carboxamide]
191 | COc1cc(C(=O)N2[C@H]3CC[C@@H]2[C@H](N)C3)cc2nc(-c3cc4ccc([C@@H](C)N5CCOCC5)nc4n3CC3CC3)c(C)n12 [Example 277, [(1~{R},2~{R},4~{S})-2-amino-7-azabicyclo [2.2.1]heptan-7-yl]-[2-[1-(cyclopropylmethyl)-6-[(1~{R})-1-morpholin-4-ylethyl]pyrrolo[2,3-b]pyridin-2-yl]-5-methoxy-3-methylimidazo[1,2-a]pyridin-7-yl]methanone]
725 | COc1cc(C(=O)N2CC[C@@H](NC(C)=O)[C@@H](N)C2)cc2nc(-c3cc4ccc(N(C(F)F)S(C)(=O)=O)nc4n3CC3CC3)c(C)n12 [Example 360, ~{N}-[(3~{S},4~{R})-3-amino-1-[2-[1-(cyclopropylmethyl)-6-[difluoromethyl (methylsulfonyl)amino]pyrrolo[2,3-b]pyridin-2-yl]-5-methoxy-3-methylimidazo[1,2-a]pyridine-7-carbonyl]piperidin-4-yl]acetamide]
67.8 | COc1cc(C(=O)N2[C@H]3CC[C@@H]2[C@H](N)C3)cc2nc(-c3cc4ccc([C@@H](C)N5C(=O)CCC5C)nc4n3CC3CC3)c(C)n12 (some centres unmarked) [Example 269, 1-[(1~{R})-1-[2-[7-[(1~{R},2~{R},4~{S})-2-amino-7-azabicyclo[2.2.1]heptane-7-carbonyl]-5-methoxy-3-methylimidazo [1,2-a]pyridin-2-yl]-1-(cyclopropylmethyl)pyrrolo [2,3-b]pyridin-6-yl]ethyl]-5-methylpyrrolidin-2-one]
46.8 | COc1cc(C(=O)N2[C@H]3CC[C@@H]2[C@H](N)C3)cc2nc(-c3cc4ccc(N(C)S(C)(=O)=O)nc4n3CC3CC3)c(C)n12 [Example 476, ~{N}-[2-[7-[(1~{R}, 2~{R},4~{S})-2-amino-7-azabicyclo[2.2.1]heptane-7-carbonyl]-5-methoxy-3-methylimidazo[1,2-a]pyridin-2-yl]-1-(cyclopropylmethyl)pyrrolo[2,3-b]pyridin-6-yl]-~{N}-methylmethanesulfonamide]
48.3 | COc1cc(C(=O)N2[C@H]3CC[C@@H]2[C@H](N)C3)cc2nc(-c3cc4ccc([C@@H](C)NC(=O)c5cc6n(c5)CCOC6)nc4n3CC3CC3)c(C)n12 [Example 62, ~{N}-[(1~{R})-1-[2-[7-[(1~{R},2~{R}, 4~{S})-2-amino-7-azabicyclo[2.2.1]heptane-7-carbonyl]-5-methoxy-3-methylimidazo [1,2-a]pyridin-2-yl]-1-(cyclopropylmethyl)pyrrolo[2,3-b]pyridin-6-yl]ethyl]-3,4-dihydro-1~{H}-pyrrolo [2,1-c][1,4]oxazine-7-carboxamide]
41 | COc1cc(C(=O)N2[C@H]3CC[C@@H]2[C@H](N)C3)cc2nc(-c3cc4ccc([C@@H](C)NC(=O)C5CCOCC5)nc4n3CC3CC3)c(C)n12 [Example 150, ~{N}-[(1~{R})-1-[2-[7-[(1~{R},2~{R},4~{S})-2-amino-7-azabicyclo[2.2.1]heptane-7-carbonyl]-5-methoxy-3-methylimidazo [1,2-a]pyridin-2-yl]-1-(cyclopropylmethyl)pyrrolo [2,3-b]pyridin-6-yl]ethyl] oxane-4-carboxamide]
3360 | COc1cc(C(=O)N2[C@H]3CC[C@@H]2[C@H](N)C3)cc2nc(-c3cc4ccc(OCc5ccccc5)nc4n3CC3CC3)c(C)n12 [Example 627, [(1~{R},2~{R},4~{S})-2-amino-7-azabicyclo [2.2.1]heptan-7-yl]-[2-[1-(cyclopropylmethyl)-6-phenylmethoxypyrrolo[2,3-b]pyridin-2-yl]-5-methoxy-3-methylimidazo[1,2-a]pyridin-7-yl]methanone]
30.1 | COc1cc(C(=O)N2[C@H]3CC[C@@H]2[C@H](N)C3)cc2nc(-c3cc4ccc([C@@H](C)NC(=O)NC5CC6(CC6)C5)nc4n3CC3CC3)c(C)n12 [Example 204, 1-[(1~{R})-1-[2-[7-[(1~{R},2~{R},4~{S})-2-amino-7-azabicyclo[2.2.1]heptane-7-carbonyl]-5-methoxy-3-methylimidazo [1,2-a]pyridin-2-yl]-1-(cyclopropylmethyl)pyrrolo [2,3-b]pyridin-6-yl]ethyl]-3-spiro[2.3]hexan-5-ylurea]
10600 | CCc1ccc2cc(-c3nc4cc(C(=O)N5C[C@@]6(N)CC[C@@H]5C6)cc(OC)n4c3C)n(CC3CC3)c2n1 [Example 588, [(1~{R},4~{R})-4-amino-2-azabicyclo[2.2.1]heptan-2-yl]-[2-[1-(cyclopropylmethyl)-6-ethylpyrrolo[2,3-b]pyridin-2-yl]-5-methoxy-3-methylimidazo[1,2-a]pyridin-7-yl]methanone]
54.5 | COc1cc(C(=O)N2[C@H]3CC[C@@H]2[C@H](N)C3)cc2nc(-c3cc4ccc([C@@H](C)NC(=O)N5CCOCC5)nc4n3CC3CC3)c(C)n12 [Example 241, ~{N}-[(1~{R})-1-[2-[7-[(1~{R},2~{R},4~{S})-2-amino-7-azabicyclo[2.2.1]heptane-7-carbonyl]-5-methoxy-3-methylimidazo [1,2-a]pyridin-2-yl]-1-(cyclopropylmethyl)pyrrolo [2,3-b]pyridin-6-yl]ethyl] morpholine-4-carboxamide]
94.7 | CCc1cc(C(=O)N2CCC[C@@H](N)C2)cc2nc(-c3cc4ccc(N(C(F)F)S(C)(=O)=O)nc4n3CC3CC3)c(C)n12 [Example 427, ~{N}-[2-[7-[(3~{R})-3-aminopiperidine-1-carbonyl]-5-ethyl-3-methylimidazo [1,2-a]pyridin-2-yl]-1-(cyclopropylmethyl)pyrrolo [2,3-b]pyridin-6-yl]-~{N}-(difluoromethyl) methanesulfonamide]
4450 | COc1cc(C(=O)N2C[C@@H]3C[C@]3(N)C2)cc2nc(-c3cc4ccc([C@@H](C)NC(=O)C56CC(F)(C5)C6)nc4n3CC3CC3)c(C)n12 [Example 25, ~{N}-[(1~{R})-1-[2-[7-[(1~{R},5~{S})-1-amino-3-azabicyclo [3.1.0]hexane-3-carbonyl]-5-methoxy-3-methylimidazo [1,2-a]pyridin-2-yl]-1-(cyclopropylmethyl)pyrrolo[2,3-b]pyridin-6-yl]ethyl]-3-fluorobicyclo[1.1.1] pentane-1-carboxamide]

Molecule | IC50 [nM]
[(1~{R},2~{R},4~{S})-2- amino-7- azabicyclo[2.2.1]heptane-7- carbonyl]- 5-methoxy-3-methylimidazo [1,2-a]pyridin-2-yl]-1- (cyclopropylmethyl)pyrrolo [2,3-b]pyridin-6-yl]ethyl]-3- hydroxybicyclo[1.1.1] pentane-1-carboxamide [Example 87] | 28.6
~{N}-[(1~{R})-1-[2-[7- [(1~{R},2~{R},4~{S})-2- amino-7- azabicyclo[2.2.1]heptane-7- carbonyl]- 5-methoxy-3-methylimidazo [1,2-a]pyridin-2-yl]-1- (cyclopropylmethyl)pyrrolo [2,3-b]pyridin-6-yl]ethyl]- 3,3-dimethylcyclobutane-1- carboxamide [Example 71] | 63.4
